According to PubChem BioAssay (NCI):
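Each compound was tested at five concentrations against cells in 96-well plates for 48 hours. GI50 marks 50% less growth. TGI: concentration producing complete growth inhibition.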

Legend:
Test in all cases: NCI-60 cell line screen, 48 h
A549 NSCLC = tested on: A549 NSCLC
EKVX NSCLC = tested on: EKVX NSCLC
K-562 leukemia = tested on: K-562 leukemia
LOX IMVI melanoma = tested on: LOX IMVI melanoma
MDA-MB-231 breast = tested on: MDA-MB-231 breast
MDA-MB-435 = tested on: MDA-MB-435
OVCAR-3 ovarian = tested on: OVCAR-3 ovarian
SK-MEL-2 melanoma = tested on: SK-MEL-2 melanoma
TK-10 renal = tested on: TK-10 renal
MCF7 breast = tested on: MCF7 breast

Row | SMILES | TGI (A549 NSCLC) [µM] | TGI (EKVX NSCLC) [µM] | TGI (K-562 leukemia) [µM] | TGI (LOX IMVI melanoma) [µM] | TGI (MDA-MB-231 breast) [µM] | TGI (MDA-MB-435) [µM] | TGI (OVCAR-3 ovarian) [µM] | TGI (SK-MEL-2 melanoma) [µM] | TGI (TK-10 renal) [µM] | GI50 (A549 NSCLC) [µM] | GI50 (EKVX NSCLC) [µM] | GI50 (K-562 leukemia) [µM] | GI50 (LOX IMVI melanoma) [µM] | GI50 (MDA-MB-231 breast) [µM] | GI50 (MDA-MB-435) [µM] | GI50 (OVCAR-3 ovarian) [µM] | GI50 (SK-MEL-2 melanoma) [µM] | GI50 (TK-10 renal) [µM] | GI50 (MCF7 breast) [µM] | TGI (MCF7 breast) [µM]
1 | C=C1C(=O)C23C(O)CC4C(C)(C)CCC(O)C4(C)C2CC(OC(C)=O)C1[C@H]3O (stereo partly drawn) | 13.7 | 16.8 | 10.1 | 15.8 | 14.6 | 21.4 | 19 | 5.3 | 3.72 |  |  |  |  |  |  |  |  |  |  | 
2 | CC/C(=C/c1ccc(OC)cc1)[N+](=O)[O-] | 19.6 | 27.2 | > 100 | 2.98 | 4.9 | 3.6 | 3.35 | 4.62 | 3.28 | 6.07 | 14.2 | 1.95 | 1.47 | 2.31 | 1.68 | 1.86 | 2.02 | 1.75 |  | 
3 | CNC(=O)c1sc(-n2cnc3cc(OC)c(OC)cc32)cc1OCc1ccccc1C(F)(F)F | > 25 | > 25 | > 25 | > 25 | > 25 | > 25 | > 25 | > 25 | > 25 | > 25 | > 25 | > 25 | > 25 | 15.9 | > 25 | > 25 | > 25 | > 25 | > 25 | > 25
4 | CN(N=O)c1ccc(/C=C/c2ccnc3ccccc23)cc1 | > 100 | > 100 | > 100 | > 100 | > 100 | > 100 | > 100 | > 100 | > 100 |  |  |  |  |  |  |  |  |  |  | > 100
5 | COc1cccc(/C=C\C(=O)c2ccccc2)c1 | 40.5 |  | > 100 | 7.38 | 36.2 | 27.8 | 13.4 | 34.8 | 30.4 | 15 |  | 6.27 | 2.42 | 17.1 | 11.9 | 3.04 | 18 | 13.7 | 2.57 | 18.6
6 | CC(C)(C)n1cc(-c2ccnc(NCCCNS(=O)(=O)c3cccc4ccccc34)c2)c(-c2cccc(O)c2)n1 | 5.99 | 6.32 | > 100 | 3.28 | 5.64 | 3.37 | 4.22 | 4.06 | 9.73 | 2.29 | 2.13 | 1.48 | 1.73 | 2.32 | 1.76 | 2.06 | 1.88 | 2.85 | 1.91 | 4.06
7 | NP1(Oc2ccc(F)cc2)=NP(N)(Oc2ccc(F)cc2)=NP(Oc2ccc(F)cc2)(Oc2ccc(F)cc2)=N1 (stereo not drawn) | 14.6 | 19 |  | 19.7 | 23.4 | 19.3 | 16 |  | 12.3 |  |  |  |  |  |  |  |  |  |  | 10.9
